Experimental data as given in US12180255B2, “Compositions and methods for derepressing RE1 silencing transcription factor target genes” (Alcamena Stem Cell Therapeutics, LLC, priority 2019, dated 2024).
pKd: −log10 of the molar value.

Key:
[1] = Mechanical pain threshold after SNI, morphine analgesia; type: in vivo; conditions: single S.C. injection, n=4
Experimental: FIG. 23. […] B. Analgesic effect of single S.C. injection of morphine on MT post-injury (SNI+MOR, n=4). Mean±SEM; F=4.62, *p<0.05 by one-way ANOVA before and after treatment; mean difference and 95% CI=−7.3, −14.5 to −0.135, p<0.05 by Bonferroni's Multiple Comparison test. 20 mg/Kg of MOR (n=4; F=19.03, **p<0.001 by one-way ANOVA).

[2] = Conditioned Place Preference after morphine in SNI mice; type: in vivo; conditions: 4 doses
Source text: FIG. 24. Conditioned Place Preference (CPP) after conditioning with saline (control) and 4 doses of morphine (MOR) in SNI mice.

His-CTDSP1 = molecular target: T1, His-CTDSP1 (Homo sapiens, UniProt Q9GZU7); experiment: Binding affinity of RPP for CTDSP1, Monolith (NanoTemper); conditions: His-CTDSP1 40 nM labelled with RED-tris NTA dye 20 nM
T1 construct: made in house; host or cells: E. coli 10G (Lucigen), pBAD-HisA
T1 sequence (Q9GZU7 with tags, fused parts or gaps): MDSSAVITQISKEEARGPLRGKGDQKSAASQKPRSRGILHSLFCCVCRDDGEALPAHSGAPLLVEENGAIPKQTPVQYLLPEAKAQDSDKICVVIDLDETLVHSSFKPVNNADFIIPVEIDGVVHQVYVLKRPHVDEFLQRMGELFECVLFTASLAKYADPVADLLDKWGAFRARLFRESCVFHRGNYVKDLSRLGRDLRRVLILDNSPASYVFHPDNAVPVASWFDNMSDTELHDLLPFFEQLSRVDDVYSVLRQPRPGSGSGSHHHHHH
Experimental: FIG. 2. Binding affinity of the REST phosphomimetic peptide (RPP) for CTDSP1 was measured using the Monolith (NanoTemper). […] Binding was assessed by fluorescently labelling the His tag on CTDSP1 (40 nM) with RED-tris NTA dye (20 nM) and measuring the change in fluorescents when RPP (up to […]) is bound.
Expression constructs for His-CTDSPL (Table 2; SEQ ID NO: 162) and GST-RPP (Table 4; SEQ ID NO: 164) were constructed and purified as described in Example 2. The His tag on CTDSP1 (40 nM) was labelled with RED-tris NTA dye (20 nM), with a […] dye to CTDSP1 ratio, and unbound dye was removed by gravity-flow size exclusion. Binding affinity of the linear GST-RPP (Table 4; SEQ ID NO: 165) to His-CTDSP1 (Table 2; SEQ ID NO:163) was determined using Monolith (NanoTemper), following manufacturer recommendations. Results of the binding assay are presented in FIG. 2: The RPP (Table 4; SEQ ID NO: 165) was assessed for binding to His-CTDSP1 at several concentrations ranging from low pM up to 0.5 μM.

NBFL cells = experiment: KV4.3 mRNA in NBFL cells transfected with plasmid expressing RPP; type: cell-based
Experimental: FIG. 8. mRNA levels of KV4.3 in NBFL cells 48 h after CTDSP1 inhibition. Cells were transfected with a plasmid expressing RPP (SEQ ID NO: 1) with GFP (+) or a control peptide with GFP (−). 24 hours after transfection, cells were sorted based on fluorescence intensity. Error bars represent standard deviation, n=2.
Transient Transfections and Cell Culture. NBFL cells were grown as previously described^120. 0.5 M NFBL cells were seeded on a 35 mm dish, incubated at 37° C. overnight, and transfected with 2 μg of REST (SEQ. ID NO: 1)-IRES-GFP cDNA^2 using lipofectamine2000 (Life Technologies), following manufacturer recommendations. After a 48 hour incubation period, cell were sorted by fluorescence activated cell sorting (FACS),
mRNA extraction and quantification. mRNA was extracted, as described in Example 10, from GFP+ and − cells; mRNA levels of KV4.3 were determined using real-time RT-PCR^116. Gene expression was normalized using β-actin (ACTB) as an internal housekeeping control. The β-actin primers used are the same as Example 10. The KV4.3 primers were: forward: […] (SEQ ID NO: 336) and reverse: […] (SEQ ID NO: 337).

Compound: CN1CC[C@]23c4c5ccc(O)c4O[C@H]2[C@@H](O)C=C[C@H]3[C@H]1C5 [morphine]
- mechanical pain threshold (MT), mean difference before and after treatment [1]: −7.3
- Conditioned Place Preference (CPP) [2]: induced CPP in a dose-dependent manner

Compound: SEQ ID NO: 165: RPP-GST fusion protein, MCTEDLEPPEPPLPKENC linked to GST (Table 4)
- pKd (His-CTDSP1): ~9.89

Compound: TEDLEPPEPPLPKEN [SEQ ID NO: 1, REST phosphomimetic peptide (RPP)]
- increase in KV4.3 mRNA (NBFL cells; NBFL cells transfected with RPP): 2 fold
- Increase, KV4.3 mRNA (NBFL cells; NBFL, 2 μg (transfected), 48 h): 3x
